Test results from patent US5593989A, “Tetracyclic 1,4-oxazine compounds” (Adir et Compagnie, priority 1994, dated 1997).

Assays:
[1] = test system: cloned human D3 receptors vs D2 receptors; assay: D3 vs D2 binding selectivity, cloned human receptors
Protocol: (§1) in vitro: by the technique of binding to human and rat D2 and D3 receptors (expressed independently and in a stable manner in CHO cells);
(§2) The affinity of the compounds for human or rat D3 and D2 receptors (expressed independently and in a stable manner in CHO cells) was determined in membrane preparations using [^125 I]-iodosulpiride as radioligand (Sokoloff et al, op. cit.), raclopride (10 μM) determining the non-specific binding. The results are expressed as IC50. The selectivity is expressed by the ratio of IC50 D2 to IC50 D3.

[2] = test system: cloned rat D3 receptors vs D2 receptors; assay: D3 vs D2 binding selectivity, cloned rat receptors
Protocol: as §1, §2

[3] = Forced-swimming test (Porsolt); assay type: in vivo; settings: for Period of immobility: means ± sem
Protocol: The procedure has been described in detail by Porsolt et al. (1978).
The experiment was carried out over two days, the test taking place on the second day. On the first day, the animal was placed for 15 minutes in a glass cylinder (30 cm×.O slashed.20 cm) filled with water, the temperature of which is maintained at 25° C. On the second day, the day of the test, the product or the solvent was administered to the animal by the subcutaneous route 30 minutes before the beginning of the test, At T0, the animal was placed in a cylinder filled with water for the 5 minutes the test lasted. The total period (expressed in seconds) of immobility of the animal was measured.
The inhibitory dose (95% confidence limit) for reducing immobility time by 50% was calculated according to Finney's method (Statistical Method in Biological Assays, 2nd ed., Hafner Publishing, New York, 1964).

D3 receptor = assay: Hypothermia induced in rats by 7-OH-DPAT; assay type: in vivo, male Wistar rats; settings: for ΔT °C.: means ± sem
Protocol: in vivo: by the capacity of the molecules to modulate hypothermia induced in rats by the D3 dopaminergic agonist, 7-OH-DPAT, control of the body temperature being dependent upon the post-synaptic D3 receptor (M. J. Millan, op. cit.).
The tests were carried out on male Wistar rats weighing 200-250 g, placed in individual cages with free access to food and water. The products were dissolved in distilled water to which several drops of lactic acid are added. The injections were effected in a volume of 1.0 ml/kg by the subcutaneous route. The doses are expressed in base. The rectal temperature of the rats was recorded using a digital thermal probe (Millan et al., J.P.E.T., 1993, 264, p. 1364-1376). The rats were injected with the compound or vehicle, then put back in their cages for 30 minutes. The rats were then given an injection of 7-OH-DPAT (0.16 mg/kg) and put back in their cages. Thirty minutes later, the rectal temperature was measured and the difference to basal values (ΔT° C.) was determined. The inhibitory dose (95% confidence limit) for reducing the effect of 7-OH-DPAT by 50% was calculated according to Finney's method (Statistical Method in Biological Assays, 2nd ed., Hafner Publishing, New York, 1964).

For `CCCN1CCO[C@@H]2c3cc4c(cc3CC[C@H]21)CCO4` (relative stereo) [Example 1, trans-3,4,4a,5,6,8,9,11b-octahydrofuro[2,3-b]1,4-oxazino[3,2-h]4-propyl-2H-naphthalene], the “selectivity for D3 receptors compared with D2 receptors, ratio of IC50 D2 to IC50 D3” value (“selectivity … ratio of IC50 D2 to IC50 D3” below) [1] was 45, the “selectivity … ratio of IC50 D2 to IC50 D3” value [2] was 44 and the Period of immobility ([3]; dose 0.63 mg/kg s.c.) was 200.8 ± 17.4 s. For the same compound, the Period of immobility ([3]; dose 1.25 mg/kg s.c.) was 107.1 ± 39.7 s, the Period of immobility ([3]; dose 2.5 mg/kg s.c., * p < 0.05) was 63.1 ± 12.4 s and the Period of immobility ([3]; dose 10.0 mg/kg s.c., * p < 0.05) was 28.2 ± 18.1 s. The ED50 ([3]; sc, 95% confidence limit in brackets, read-out: inhibitory dose (ID50) for reducing immobility time by 50%) was 1.8 mg/kg, the “inhibitory dose (ID50) for reducing the effect of 7-OH-DPAT by 50%” value (D3 receptor; 95% confidence limit in brackets, rats) was 1.6 (0.7-3.7) mg/kg s.c and the “ΔT °C.” value (D3 receptor; Ex 1 0.16 mg/kg s.c., then 7-OH-DPAT 0.16 mg/kg) was -1.8 ± 0.2 °C. For the same compound, the “ΔT °C.” value (D3 receptor; Ex 1 0.63 mg/kg s.c., then 7-OH-DPAT 0.16 mg/kg) was -1.3 ± 0.2 °C, the “ΔT °C.” value (D3 receptor; Ex 1 2.5 mg/kg s.c., then 7-OH-DPAT 0.16 mg/kg, * p < 0.05 versus vehicle/7-OH-DPAT) was “+0.2 ± 0.2 °C” and the “ΔT °C.” value (D3 receptor; Ex 1 10.0 mg/kg s.c., then 7-OH-DPAT 0.16 mg/kg, * p < 0.05 versus vehicle/7-OH-DPAT) was -0.1 ± 0.2 °C.

In the case of `CCCN(CCC)[C@@H]1CCc2c(OC)cccc2[C@@H]1C` [(+)UH 232], the “selectivity … ratio of IC50 D2 to IC50 D3” value [1] is reported as 4.8.

With `CCCN[C@@H]1CCc2c(OC)cccc2[C@@H]1C` [AJ 76] the “selectivity … ratio of IC50 D2 to IC50 D3” value [1] was 2.2.

For `CCCN(CCC)C1CCc2ccc(O)cc2C1` (stereo not shown) [Example 7-OH-DPAT, reference compound], the “selectivity … ratio of IC50 D2 to IC50 D3” value [2] was 53 and the “ΔT °C.” value (D3 receptor; injection 1 vehicle, injection 2 7-OH-DPAT 0.16 mg/kg s.c.) was -1.4 ± 0.1 °C.
